Columns and labels:
[1] = Metabolic stability (MS) evaluation; assay type: in vitro ADME
[2] = tested on: peripheral blood mononuclear cells of inflammatory bowel disease patients; experiment: Inflammatory cytokine expression in PBMC of inflammatory bowel disease patients; assay type: cell-based, human; details: treated 24 hours; FIG. 4
CYP 2C9 = CYP 2C9 (Homo sapiens, UniProt P11712); experiment: CYP inhibition assay (luminescence); assay type: in vitro ADME
Excerpt: (§1) DDI (Drug Interaction) can be observed in a CYP inhibition assay. A luminescence assay was used to measure and evaluate inhibition activity against 1A2, 2C9, 2C19, 2D6 and 3A4, which are important Phase 1 drug metabolism CYP450 enzymes involved in drug metabolism.

CYP 2C19 = CYP 2C19 (Homo sapiens, UniProt P33261); experiment: CYP inhibition assay (luminescence); assay type: in vitro ADME
Excerpt: as §1

CYP 2D6 = CYP 2D6 (Homo sapiens, UniProt P10635); experiment: CYP inhibition assay (luminescence); assay type: in vitro ADME
Excerpt: as §1

CYP 1A2 = CYP 1A2 (Homo sapiens, UniProt P05177); experiment: CYP inhibition assay (luminescence); assay type: in vitro ADME
Excerpt: as §1

CYP 3A4 = CYP 3A4 (Homo sapiens, UniProt P08684); experiment: CYP inhibition assay (luminescence); assay type: in vitro ADME
Excerpt: as §1

Sequence of CYP 3A4 (P08684 whole entry): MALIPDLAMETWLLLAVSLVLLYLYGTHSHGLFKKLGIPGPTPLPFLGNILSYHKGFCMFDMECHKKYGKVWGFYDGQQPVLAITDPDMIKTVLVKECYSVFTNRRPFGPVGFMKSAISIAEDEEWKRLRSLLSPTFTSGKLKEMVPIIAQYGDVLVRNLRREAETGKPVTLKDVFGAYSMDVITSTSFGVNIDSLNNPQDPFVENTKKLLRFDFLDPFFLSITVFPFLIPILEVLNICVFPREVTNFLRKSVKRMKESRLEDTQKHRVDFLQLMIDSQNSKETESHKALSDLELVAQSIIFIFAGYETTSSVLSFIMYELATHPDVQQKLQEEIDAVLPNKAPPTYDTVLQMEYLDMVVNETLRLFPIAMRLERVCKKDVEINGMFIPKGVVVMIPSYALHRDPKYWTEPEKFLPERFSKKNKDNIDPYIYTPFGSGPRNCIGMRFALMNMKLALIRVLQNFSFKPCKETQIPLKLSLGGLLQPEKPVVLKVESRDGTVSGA
Sequence of CYP 1A2 (P05177 whole entry): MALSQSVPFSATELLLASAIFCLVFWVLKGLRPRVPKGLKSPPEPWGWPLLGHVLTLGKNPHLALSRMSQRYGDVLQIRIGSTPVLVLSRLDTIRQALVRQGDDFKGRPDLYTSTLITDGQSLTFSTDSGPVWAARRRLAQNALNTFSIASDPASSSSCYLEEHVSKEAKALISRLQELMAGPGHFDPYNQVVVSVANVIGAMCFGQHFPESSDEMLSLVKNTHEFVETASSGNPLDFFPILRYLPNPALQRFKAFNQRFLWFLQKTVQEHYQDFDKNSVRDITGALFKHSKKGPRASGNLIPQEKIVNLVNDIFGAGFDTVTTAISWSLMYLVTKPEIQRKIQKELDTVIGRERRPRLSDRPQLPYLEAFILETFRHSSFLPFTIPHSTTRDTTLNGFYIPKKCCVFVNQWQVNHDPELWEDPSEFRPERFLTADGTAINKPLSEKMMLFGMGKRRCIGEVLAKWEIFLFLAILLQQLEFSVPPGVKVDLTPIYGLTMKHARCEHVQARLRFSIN
Sequence of CYP 2C19 (P33261 whole entry): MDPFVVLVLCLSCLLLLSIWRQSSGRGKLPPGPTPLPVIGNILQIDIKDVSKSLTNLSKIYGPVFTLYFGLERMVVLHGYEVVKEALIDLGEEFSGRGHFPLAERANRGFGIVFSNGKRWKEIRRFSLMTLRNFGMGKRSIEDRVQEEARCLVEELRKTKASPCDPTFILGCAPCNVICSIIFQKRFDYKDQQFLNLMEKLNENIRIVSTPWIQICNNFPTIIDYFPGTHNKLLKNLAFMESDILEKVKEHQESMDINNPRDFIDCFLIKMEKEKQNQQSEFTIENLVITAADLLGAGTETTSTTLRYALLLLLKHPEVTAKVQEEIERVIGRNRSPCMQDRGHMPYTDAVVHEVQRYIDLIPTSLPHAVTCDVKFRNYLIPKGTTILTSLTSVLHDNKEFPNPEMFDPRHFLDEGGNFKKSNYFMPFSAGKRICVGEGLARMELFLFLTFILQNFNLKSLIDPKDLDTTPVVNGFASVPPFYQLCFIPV
Sequence of CYP 2D6 (P10635 whole entry): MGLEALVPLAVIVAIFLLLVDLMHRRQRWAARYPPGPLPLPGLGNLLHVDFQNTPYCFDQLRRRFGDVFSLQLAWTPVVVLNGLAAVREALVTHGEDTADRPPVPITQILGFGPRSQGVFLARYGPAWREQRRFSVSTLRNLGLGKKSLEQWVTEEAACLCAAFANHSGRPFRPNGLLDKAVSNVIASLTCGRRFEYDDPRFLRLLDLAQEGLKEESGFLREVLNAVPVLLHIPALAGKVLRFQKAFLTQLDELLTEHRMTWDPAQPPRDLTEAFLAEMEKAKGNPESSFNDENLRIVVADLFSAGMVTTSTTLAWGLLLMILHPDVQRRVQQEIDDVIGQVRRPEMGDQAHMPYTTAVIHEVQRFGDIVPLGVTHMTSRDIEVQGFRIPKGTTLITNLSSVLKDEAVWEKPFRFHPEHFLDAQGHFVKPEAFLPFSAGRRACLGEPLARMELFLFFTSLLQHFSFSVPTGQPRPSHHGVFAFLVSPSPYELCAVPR
Sequence of CYP 2C9 (P11712 whole entry): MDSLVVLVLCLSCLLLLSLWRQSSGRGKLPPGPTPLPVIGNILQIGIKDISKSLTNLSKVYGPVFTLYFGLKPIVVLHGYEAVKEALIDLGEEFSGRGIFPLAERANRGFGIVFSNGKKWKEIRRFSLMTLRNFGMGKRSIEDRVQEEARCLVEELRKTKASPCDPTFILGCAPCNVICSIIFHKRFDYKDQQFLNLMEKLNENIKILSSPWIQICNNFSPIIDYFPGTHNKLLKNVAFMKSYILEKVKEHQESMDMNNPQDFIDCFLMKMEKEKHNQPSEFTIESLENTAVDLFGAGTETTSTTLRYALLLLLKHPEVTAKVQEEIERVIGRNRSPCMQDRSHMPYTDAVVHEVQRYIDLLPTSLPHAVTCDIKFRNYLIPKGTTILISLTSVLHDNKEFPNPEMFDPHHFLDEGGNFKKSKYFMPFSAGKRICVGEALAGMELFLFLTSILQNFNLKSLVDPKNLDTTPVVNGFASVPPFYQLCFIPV

CCNc1cc(Nc2ccc(C(=O)N3CCC(N4CCOCC4)CC3)cc2OC)nc2[nH]cc(C(F)(F)F)c12 [Compound 1, (4-((4-(ethylamino)-3-(trifluoromethyl)-1H-pyrrolo[2,3-b]pyridine-6-yl)amino)-3-methoxyphenyl)(4-morpholinopiperidine-1-yl)methanone]
MS (1 μM) (% remaining during 30 min) Rat [1]: 20%
expression of IL-6 [2]: effectively inhibiting
expression of IL-17A [2]: effectively inhibiting
expression of TNF-α [2]: effectively inhibiting
CYP (10 μM) (% of control activity 2C9) (CYP 2C9): 74%
CYP (10 μM) (% of control activity 2C19) (CYP 2C19): 84%
CYP (10 μM) (% of control activity 2D6) (CYP 2D6): 92%
CYP (10 μM) (% of control activity 1A2) (CYP 1A2): 86%
CYP 3A4 enzyme inhibition activity (in words) (CYP 3A4): almost no enzyme inhibition activity
CYP (10 μM) (% of control activity 3A4) (CYP 3A4; 10 μM): 72%
